Experimental data reported in EP0698347B1, “Food composition containing reuterin” (BIOGAIA BIOLOGICS AB, priority 1987, dated 1988).

Key:
Format in all cases: cell-based
E. coli [1] = assay: Co-culture of E. coli with and without L. reuteri 1063 on various substrates (Table 1); set-up: % Inhibition: concentration or dose not given beside the values; conditions: for E. coli (CFU/ml) after 6 hours: substrate 20 mM (C6, C5) or 40 mM (C3), inoculum 5 x 10^6 CFU per ml E. coli; for % Inhibition: E. coli with versus without L. reuteri 1063 on the substrate, 6 hours
Method: (§1) Conditions under which reuterin is produced have been determined. Reuterin is not produced under aerobic conditions (atmospheric oxygen concentration) but under reduced oxygen tension. It is produced when L. reuteri is cultured anaerobically (or semi-anaerobically in still culture) in the MIC assay medium described above containing 20-500 mM glycerol or glyceraldehyde in place of glucose as the major carbon and energy source. […] Twenty other substances, including hexoses, hexitols, pentoses, pentitols, disaccharides and a variety of phosphorylated and non-phosphorylated C3-substances, were tested for their ability to support reuterin production. […] The medium, containing a substrate at 20 mM (C6 and C5 substrates) or 40 mM (C3 substrates) concentrations, was inoculated with 5 x 10^6 colony-forming units (CFU) per ml E. coli with and without L. reuteri. Only glycerol and glyceraldehyde yielded reuterin. Also, réuterin production from glycerol is inhibited when glucose or another growth substrate is included in the production medium. The results shown in Table 2 indicate the percent inhibition in viable count of a 6.7 x 10^7 CFU per ml E. coli inoculum by supernatant fractions of L. reuteri grown on various indicated substrates at 40 mM concentrations.

E. coli [2] = assay: Inhibition of E. coli by supernatant fractions of L. reuteri grown on various substrates (Table 2); conditions: for % Inhibition: percent inhibition in viable count of 6.7 x 10^7 CFU per ml E. coli inoculum by supernatant fraction, substrate 40 mM; for Growth of E. coli presence of centrifuged culture medium CFU/ml after 6 hours: supernatant fraction of L. reuteri grown on the substrate at 40 mM, inoculum 6.7 x 10^7 CFU per ml E. coli
Method: as §1

[3] = Antimicrobial activity of pure commercial preparations; conditions: concentrations as high as 0.125M
Description: Reuterin Is a Product of Glycerol Fermentation. Reuterin is a new product associated with the same type of heterolactic fermentation of glycerol that occurs in other Lactobacillus species. Reuterin can be isolated and identified as a product of glycerol fermentation by L. reuteri using HPLC.

| Compound | E. coli (CFU/ml) after 6 hours (E. coli [1]; Addition of L. reuteri 1063: +) | E. coli (CFU/ml) after 6 hours (E. coli [1]; Addition of L. reuteri 1063: -) | % Inhibition (E. coli [1]) | % Inhibition (E. coli [2]) | Growth of E. coli presence of centrifuged culture medium CFU/ml after 6 hours (E. coli [2]) | antimicrobial activity [3] |
| --- | --- | --- | --- | --- | --- | --- |
| OC[C@@H](O)C(O)[C@H](O)CO [Arabitol] | 2.9x10^6 CFU/ml | 2.7x10^6 CFU/ml | 0% | – | – | – |
| O=C(O)[C@H](O)[C@@H](O)[C@H](O)[C@H](O)CO [Gluconate] | 3.2x10^8 CFU/ml | 3.5x10^8 CFU/ml | 0% | – | – | – |
| O=CC(O)CO (centres unmarked) [Glyceraldehyde] | 3.2x10^4 CFU/ml | 2.8x10^6 CFU/ml | 99% | 98.9% | 6.1x10^5 CFU/ml | – |
| C=C(OP(=O)(O)O)C(=O)O [Phosphoenolpyruvate] | – | – | – | 0% | 3.7x10^9 CFU/ml | – |
| O=C(CO)COP(=O)(O)O [Dihydroxyacetone-P] | 4.1x10^6 CFU/ml | 3.4x10^6 CFU/ml | 0% | 0% | 3.7x10^9 CFU/ml | – |
| OCCCO [1,3-propanediol] | – | – | – | – | – | essentially devoid of antimicrobial activity |
| O=C[C@H](O)[C@@H](O)[C@H](O)CO [Xylose] | 6.9x10^7 CFU/ml | 6.7x10^7 CFU/ml | 0% | – | – | – |
| CC(=O)C(=O)O [Pyruvate] | – | – | – | 0% | 4.1x10^9 CFU/ml | – |
| O=C(O)CCO [β-hydroxypropionic acid] | – | – | – | – | – | essentially devoid of antimicrobial activity |
| OC[C@@H](O)[C@@H](O)[C@H](O)[C@@H](O)CO [Sorbitol] | 1.9x10^8 CFU/ml | 2.1x10^8 CFU/ml | 0% | – | – | – |
| Phosphoglycerate | – | – | – | 0% | 3.3x10^9 CFU/ml | – |
| OC[C@@H](O)[C@@H](O)[C@H](O)[C@H](O)CO [Mannitol] | 2.7x10^8 CFU/ml | 2.3x10^8 CFU/ml | 0% | – | – | – |
| O=C(CO)[C@@H](O)[C@H](O)[C@H](O)CO [Fructose] | 3.0x10^8 CFU/ml | 2.1x10^8 CFU/ml | 0% | – | – | – |
| O=P(O)(O)OC(CO)CO [β-Glycerol-P] | 6.5x10^6 CFU/ml | 5.1x10^6 CFU/ml | 0% | 0% | 3.2x10^9 CFU/ml | – |
| OC[C@@H](O)[C@@H](O)[C@@H](O)CO [Ribitol] | 4.9x10^6 CFU/ml | 5.7x10^6 CFU/ml | 0% | – | – | – |
